Assay results from paper PMC12134935, “Scientific hypothesis generation by large language models: laboratory validation in breast cancer treatment” (Journal of the Royal Society Interface, 2025).
“Also recorded” adds a separate entry of the source. Like-named read-outs stand apart in the source and are kept apart here.

What was measured:
Assay type in all cases: cell-based
MCF10A = test: Single drug treatments, viability/toxicity; settings: Homo sapiens, MCF-10A, read-out: MCF10A IC50
Source text: (§1) In our experiments, breast cancer cells were exemplified by MCF7 (an epithelial breast cancer cell line); non-tumorigenic breast cells were exemplified by the epithelial cell line MCF10A. We provided GPT4 with a prompt that had several aims:
(§2) In an additional experiment, 12 drugs were retested from the first round (n ≥ 3 replicates). An ANOVA two-way test with three replicates was used to calculate the significance of changes to viability compared with the internal control drug allopurinol for both cell lines (electronic supplementary material, figures S6 and S7). Two of the retested drugs were initially used as positive controls for MCF7 (doxorubicin and fulvestrant).

MCF7 [1] = test: Single drug treatments, viability/toxicity; settings: for toxicity towards MCF7: doses up to 25 µM
MCF7 [2] = test: Single drug treatments, viability/toxicity; settings: for reduction of viability of MCF7: two-way ANOVA vs allopurinol, concentrations up to 3.84 µM; for IC50: Homo sapiens, MCF7, retest of drugs from first round, n ≥ 3 replicates, MCF7
Source text: as §1, §2

MCF7 versus MCF10A = test: Single drug specificity towards MCF7 compared with MCF10A; settings: first round, MCF7 versus MCF10A viability
[3] = single drug, first round, maximum dose 25 µM
[4] = Homo sapiens, MCF7, single drug, first round, maximum dose 25 µM, read-out: MCF7 IC50
[5] = Homo sapiens, MCF7, read-out: MCF7 IC50

Compound	IC50 (MCF10A; [3])	IC50 (MCF7 [1]; [4])	toxicity towards MCF7 (MCF7 [1]; single drug, first round)	also measured
C[C@H]1O[C@H](O[C@H]2[C@H](O)[C@@H](O)[C@@H](O[C@H]3[C@H](O)[C@@H](O)C(O)O[C@@H]3CO)O[C@@H]2CO)[C@H](O)[C@@H](O)[C@@H]1N[C@H]1C=C(CO)[C@@H](O)[C@H](O)[C@H]1O (stereo partly drawn) [acarbose]	> 25 µM	> 25 µM		
Oc1ncnc2[nH]ncc12 [allopurinol]	> 25 µM	> 25 µM		
CC(C)NCC(O)COc1ccc(CC(N)=O)cc1 (stereo not drawn) [atenolol]	> 25 µM	> 25 µM		
CC(C)c1c(C(=O)Nc2ccccc2)c(-c2ccccc2)c(-c2ccc(F)cc2)n1CC[C@@H](O)C[C@@H](O)CC(=O)O [atorvastatin]	3.79 µM	> 25 µM		
Cc1ccc(-c2cc(C(F)(F)F)nn2-c2ccc(S(N)(=O)=O)cc2)cc1 [celecoxib]	22.6 µM	5.33 µM	showed toxicity towards MCF7	
O=C(O)COCCN1CCN(C(c2ccccc2)c2ccc(Cl)cc2)CC1 (stereo not drawn) [cetirizine]	> 25 µM	> 25 µM		
CCN(CC)CCCC(C)Nc1ccnc2cc(Cl)ccc12 (stereo not drawn) [chloroquine]			showed toxicity towards MCF7	IC50 (MCF10A): > 25 µM; IC50 (MCF7 [1]; Homo sapiens, MCF7): 10.6 µM; IC50 (MCF7 [1]; [5]): > 25 µM
CN/C(=N/CCSCc1nc[nH]c1C)NC#N [cimetidine]	> 25 µM	> 25 µM	showed toxicity towards MCF7	
O=P1(N(CCCl)CCCl)NCCCO1 (stereo not drawn) [cyclophosphamide]				IC50 (MCF10A): > 25 µM; IC50 (MCF7 [1]; [5]): > 25 µM
OCCN(CCO)c1nc(N2CCCCC2)c2nc(N(CCO)CCO)nc(N3CCCCC3)c2n1 [dipyridamole]	> 25 µM	> 25 µM		reduction of viability of MCF7 (MCF7 [2]; retest n ≥ 3): significantly reduced the viability of MCF7; specificity towards MCF7 (MCF7 versus MCF10A): high specificity towards MCF7
CCN(CC)C(=S)SSC(=S)N(CC)CC [disulfiram]	> 25 µM	0.204 µM		IC50 (MCF7 [2]): 0.059 µM; specificity towards MCF7 (MCF7 versus MCF10A): high specificity towards MCF7
COc1cccc2c1C(=O)c1c(O)c3c(c(O)c1C2=O)C[C@@](O)(C(=O)CO)C[C@@H]3O[C@H]1C[C@H](N)[C@H](O)[C@H](C)O1 [doxorubicin]				IC50 (MCF7 [2]): 0.3 µM; reduction of viability of MCF7 (MCF7 [2]; retest n ≥ 3): also targeted MCF7; IC50 (MCF7 [1]; single drug, first round, maximum dose 25 µM, read-out: MCF7 IC50): < 25 µM
C[C@]12CC[C@@H]3c4ccc(O)cc4C[C@@H](CCCCCCCCC[S+]([O-])CCCC(F)(F)C(F)(F)F)[C@H]3[C@@H]1CC[C@@H]2O (stereo partly drawn) [fulvestrant]	> 25 µM	> 25 µM		reduction of viability of MCF7 (MCF7 [2]; retest n ≥ 3): also targeted MCF7; specificity towards MCF7 (MCF7 versus MCF10A): showed preference for MCF7
NS(=O)(=O)c1cc(C(=O)O)c(NCc2ccco2)cc1Cl [furosemide]	> 25 µM	> 25 µM		
CCN(CCO)CCCC(C)Nc1ccnc2cc(Cl)ccc12 (stereo not drawn) [hydroxychloroquine]	> 25 µM	> 25 µM	showed toxicity towards MCF7	toxicity to MCF7 (MCF7 [2]; retest n ≥ 3, hydroxychloroquine statement at 25 µM): persistent and substantial
CCC(C)n1ncn(-c2ccc(N3CCN(c4ccc(OCC5COC(Cn6cncn6)(c6ccc(Cl)cc6Cl)O5)cc4)CC3)cc2)c1=O (stereo not drawn) [itraconazole]	> 25 µM	> 25 µM	showed toxicity towards MCF7	
COC(=O)Nc1nc2ccc(C(=O)c3ccccc3)cc2[nH]1 [mebendazole]	15 µM	> 25 µM	showed toxicity towards MCF7	specificity towards MCF7 (MCF7 versus MCF10A): high specificity towards MCF7
CC12CC3CC(C)(C1)CC(N)(C3)C2 [memantine]	> 25 µM	> 25 µM		
Cc1ncc([N+](=O)[O-])n1CCO [metronidazole]	> 25 µM	> 25 µM		
O=C(Nc1ccc([N+](=O)[O-])cc1Cl)c1cc(Cl)ccc1O [niclosamide]	0.061 µM	0.699 µM	comparatively high toxicity; also recorded: showed toxicity towards MCF7	IC50 (MCF7 [2]): 1.22 µM; reduction of viability of MCF7 (MCF7 [2]; retest n ≥ 3): significantly reduced the viability of MCF7
COc1ccc2[nH]c([S+]([O-])Cc3ncc(C)c(OC)c3C)nc2c1 (stereo not drawn) [omeprazole]	> 25 µM	> 25 µM		
CC(=O)c1c(C)c2cnc(Nc3ccc(N4CCNCC4)cn3)nc2n(C2CCCC2)c1=O [palbociclib]	> 25 µM	> 25 µM		
CCN(CC)CCCC(C)Nc1c2ccc(Cl)cc2nc2ccc(OC)cc12 (stereo not drawn) [quinacrine]	10.2 µM	3.85 µM	showed toxicity towards MCF7	IC50 (MCF7 [2]): 4.71 µM; reduction of viability of MCF7 (MCF7 [2]; retest n ≥ 3): significantly reduced the viability of MCF7; specificity towards MCF7 (MCF7 versus MCF10A): high specificity towards MCF7
CCCc1nn(C)c2c(=O)[nH]c(-c3cc(S(=O)(=O)N4CCN(C)CC4)ccc3OCC)nc12 [sildenafil]	> 25 µM	> 25 µM	showed toxicity towards MCF7	
CCC(C)(C)C(=O)O[C@H]1C[C@@H](C)C=C2C=C[C@H](C)[C@H](CC[C@@H]3C[C@@H](O)CC(=O)O3)[C@H]21 [simvastatin]	7.17 µM	5.63 µM	showed toxicity towards MCF7	
